{"source": "PubChem BioAssay AID504738", "about": "(National Center for Advancing Translational Sciences (NCATS), 2011)", "system": "kinetic aqueous solubility, PBS pH 7.4, LC-UV/MS", "assay": "Inhibitors of Bloom's syndrome helicase: Aqueous Profiling Assay", "text": "Survival of cells and the faithful propagation of the genome depend on elaborate mechanisms of detecting and repairing DNA damage. Treatment of advanced cancer relies on radiation therapy or chemotherapy, which kill cancer cells by causing extensive DNA damage. It is often found, that cancer cells develop resistance to therapy through enhanced activity of DNA repair functions; this has led to an increased interest in developing drugs that interfere with DNA repair, which could sensitize cancer cells to conventional therapy. Bloom syndrome helicase (BLM), is important in resolving abnormal DNA structures formed during replication or homologous recombination. Shutting down the expression of BLM leads to chromosomal instability and higher radiation sensitivity in cultured cells. This bioassay provides profiling data on aqueous kinetic solubility (PBS @ pH 7.4) of one of the lead compounds developed in the APE1 inhibitors project. NIH Chemical Genomics Center [NCGC] NIH Molecular Libraries Probe Production Centers Network [MLPCN] MLSCN Grant: MH087284 PI Name: Dr. Opher Gileadi, Structural Genomics Consortium, University of Oxford, UK\n1. 8ul of reference and test compound stock solution were added to 392ul 100mM phosphate buffer (pH 7.4) 2. Sample tubes were shaken for 1 hr (1000 rpm) at room temperature 3. […] Concentration of the supernatant was determined by LC-UV or LC-MS/MS"}
{"smiles": "O=C(Nc1ccc(F)c(C(F)(F)F)c1)Nc1nnc(-c2ccncc2)s1", "values": [{"measurement": "solubility", "value": 2, "unit": "µM"}]}
